The values that follow come from article PMC6004562, “Discovery of Orally Bioavailable, Quinoline-Based Aldehyde Dehydrogenase 1A1 (ALDH1A1) Inhibitors with Potent Cellular Activity” (Journal of Medicinal Chemistry, 2018).

Structures are written as SMILES. Where two headings read alike, the source gives them in different places.

The nature of data set [1]: pilot toxicity / tolerability study in CD-1 mice. Conditions: po 50 mg/kg, QD*5, 5 days observation.
A short description of data set [2]: pharmacokinetics in CD-1 mice. Format: in vivo. Conditions: male, plasma, CD-1 mouse; for Vd: read-out: Vss; for bioavailability: po 10 mg/kg vs iv 2 mg/kg.
For data set [3] the following is noted: Figure 1, previously reported; cited from earlier work.
For data set [4] the following is noted: Figure 1, previously reported; cited from earlier work. The source holds these as a separate data set.
The conditions of data set [5]: mouse, in vivo, po, 50 mg/kg.
The mark [6] stands for this setting: iv 2 mg/kg, observed at t = 5 min.

As to `CS(=O)(=O)N1CCN(C(=O)c2cnc3ccc(F)cc3c2N2CCC(C#N)(c3ccccc3)CC2)CC1` [Compound 86, 1-(6-Fluoro-3-(4-(methylsulfonyl)piperazine-1-carbonyl)quinolin-4-yl)-4-phenylpiperidine-4-carbonitrile], in data set [1], the tolerability result was “no significant weight loss or abnormal clinical signs and no mortality was observed”.

Turning to `CS(=O)(=O)N1CCN(C(=O)c2cnc3ccc(Cl)cc3c2-c2ccc(C3(C#N)CC3)cc2)CC1` [Compound 119], in data set [2] (iv 2 mg/kg), the AUC(0-inf) turned out to be 1130 ng·h/mL and the Vd came out at 1.14 L/kg. In data set [2] (po 10 mg/kg), this compound displayed an AUC(0-inf) of 2760 ng·h/mL and a Cmax of 1470 ng/mL. The same compound registered a bioavailability in data set [2] of 49%.

Regarding `CN(C)C(=O)N1CCN(C(=O)c2cnc3ccc(F)cc3c2-c2ccc(C3(C#N)CC3)cc2)CC1` [Compound 118], in data set [2] (iv 2 mg/kg), the AUC(0-inf) was determined as 1410 ng·h/mL and the Vd came out at 2.2 L/kg. Moreover, the Cmax in data set [2] (setting [6]) is 1960 ng/mL. In data set [2] (po 10 mg/kg), this compound yielded an AUC(0-inf) of 2140 ng·h/mL and a Cmax of 1170 ng/mL. In data set [2], this compound had a bioavailability of 30%.

Turning to `N#CC1(c2ccccc2)CCN(c2c(C(=O)N3CCN(C(=O)C4CC4)CC3)cnc3ccc(F)cc23)CC1` [Compound 78], in data set [2] (iv 2 mg/kg), the area under the curve AUC(0-inf) amounted to 505 ng·h/mL and the Vd came to 1.2 L/kg. The same compound displayed a Cmax in data set [2] (setting [6]) of 1500 ng/mL. In data set [2] (po 10 mg/kg), this compound had an AUC(0-inf) of 227 ng·h/mL and a Cmax of 215 ng/mL. The bioavailability in data set [2] worked out at 9%.

Take `CC(C)CCn1c(CN2CCN(C(=O)C3CC3)CC2)nc2c1c(=O)n(C)c(=O)n2C` [Compound 4]: the RLM in data set [3] was above 30 min. The solubility in data set [4] was above 62 µg/mL.

As to `CN(C)C(=O)N1CCN(C(=O)c2cnc3ccc(F)cc3c2N2CCC(C#N)(c3ccccc3)CC2)CC1` [Compound 108], in data set [2] (iv 2 mg/kg), the AUC(0-inf) came out at 661 ng·h/mL and the Vd was 0.72 L/kg. This compound also came in with a Cmax in data set [2] (setting [6]) of 1800 ng/mL. For the same compound, in data set [2] (po 10 mg/kg), the AUC(0-inf) stood at 844 ng·h/mL and the Cmax is 1110 ng/mL. The same compound had a bioavailability in data set [2] of 30%.

Consider `CS(=O)(=O)N1CCN(C(=O)c2cnc3ccc(Cl)cc3c2N2CCC(C#N)(c3ccccc3)CC2)CC1` [Compound 109], for which, in data set [2] (iv 2 mg/kg), the AUC(0-inf) stood at 459 ng·h/mL and the Vd was 1.39 L/kg. The compound further showed a Cmax in data set [2] (setting [6]) of 1100 ng/mL. In data set [2] (po 10 mg/kg), this compound registered an AUC(0-inf) of 720 ng·h/mL and a maximum concentration (Cmax) of 471 ng/mL. Moreover, the bioavailability in data set [2] stood at 31%.

For `CS(=O)(=O)N1CCN(C(=O)c2cnc3ccc(F)cc3c2-c2ccc(C3(C#N)CC3)cc2)CC1` [Compound 91, 1-(4-(6-Fluoro-3-(4-(methylsulfonyl)piperazine-1-carbonyl)quinolin-4-yl)phenyl)cyclopropanecarbonitrile], the tolerability result in data set [5] is “no significant weight loss or abnormal clinical signs and no mortality was observed”.
